Series [1] has as its system IL-2 stimulated STAT5 phosphorylation in Tall-1 human T cell line (JAK3). Put plainly: Cellular JAK3 potency assay: inhibition of IL-2 stimulated pSTAT5 in Tall-1 T cells. The class given is cell-based. The following applies: IL-2 stimulated pSTAT5, Tall-1 T cells. In a few lines:
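Tall-1 cells, 45,000 per well, preincubated 1 hour with compound at 37 °C, then stimulated 30 minutes with IL-2 at 300 ng/ml final. pSTAT5 (Tyr694/699) in lysates quantified by AlphaLISA SureFire Ultra. pIC50 derived from inhibition curves, given as mean with SD.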

Another series has as its target JAK2 (Homo sapiens (Human), UniProt O60674). Put plainly: Biochemical JAK2 kinase assay (LanthaScreen). An outline of the steps: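 GST-JAK + GFP-STAT1 peptide, HEPES pH 7.5/MgCl2/EGTA/Brij-35 buffer; cpd preincubation 1 h RT; ATP start, 1 h RT; stop with 10 mM EDTA + 2 nM Tb-anti-pSTAT1; TR-FRET 520/495. 4-parameter IC50 → pKi (Cheng-Prusoff).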
Background: TR-FRET usually uses a lanthanide donor and a delayed reading to cut background.

Series [2] is described as follows: Colon and plasma mouse pharmacokinetics. Type of series: in vivo. The following applies: mouse, colon tissue / plasma; male Balb/c mice, 10 mg/kg PO; ratio of the colon AUC to the plasma AUC. An outline of the steps: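 Male Balb/c mice given 10 mg/kg PO in 1% HPMC + 0.1% Tween-80; plasma, colon tissue and colon contents taken at 0.5, 2 and 6 h, quantified by LC/MS/MS. Non-compartmental analysis on means of 2 animals/time point; colon:plasma ratio taken as colon AUC over plasma AUC.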

Some results are limits rather than exact numbers.

Sequence of JAK2 (O60674 whole entry): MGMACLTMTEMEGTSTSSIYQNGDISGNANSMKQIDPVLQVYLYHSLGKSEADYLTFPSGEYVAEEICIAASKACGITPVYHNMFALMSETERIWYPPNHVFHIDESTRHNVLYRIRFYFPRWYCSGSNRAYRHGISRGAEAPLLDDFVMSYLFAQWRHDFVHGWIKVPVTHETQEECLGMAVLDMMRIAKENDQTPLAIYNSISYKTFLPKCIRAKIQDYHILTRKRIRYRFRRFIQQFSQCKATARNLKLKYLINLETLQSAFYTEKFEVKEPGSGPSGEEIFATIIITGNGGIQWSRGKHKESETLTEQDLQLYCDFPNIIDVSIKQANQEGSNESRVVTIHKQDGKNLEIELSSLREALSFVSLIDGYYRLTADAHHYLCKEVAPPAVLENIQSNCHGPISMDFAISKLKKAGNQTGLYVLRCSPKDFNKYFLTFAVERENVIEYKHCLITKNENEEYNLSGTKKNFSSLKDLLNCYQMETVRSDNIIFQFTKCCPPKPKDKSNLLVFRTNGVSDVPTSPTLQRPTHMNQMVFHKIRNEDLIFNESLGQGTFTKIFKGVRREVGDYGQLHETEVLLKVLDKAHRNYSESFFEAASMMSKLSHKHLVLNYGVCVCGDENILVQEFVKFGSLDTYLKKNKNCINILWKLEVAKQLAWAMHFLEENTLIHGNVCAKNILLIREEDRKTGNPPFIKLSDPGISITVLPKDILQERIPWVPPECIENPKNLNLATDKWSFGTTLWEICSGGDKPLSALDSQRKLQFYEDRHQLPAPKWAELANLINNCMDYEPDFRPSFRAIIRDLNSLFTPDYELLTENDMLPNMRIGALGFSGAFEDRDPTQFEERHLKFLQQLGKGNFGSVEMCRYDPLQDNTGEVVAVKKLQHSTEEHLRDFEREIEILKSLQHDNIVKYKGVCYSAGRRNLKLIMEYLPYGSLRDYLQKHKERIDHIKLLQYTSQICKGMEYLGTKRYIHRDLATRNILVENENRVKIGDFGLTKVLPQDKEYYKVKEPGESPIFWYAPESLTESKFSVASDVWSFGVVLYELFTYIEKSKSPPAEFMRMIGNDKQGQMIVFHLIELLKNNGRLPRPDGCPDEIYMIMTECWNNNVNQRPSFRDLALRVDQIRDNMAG

As to `C=CC(=O)N1CCN(CCn2c(=O)ccc3cnc(Nc4ccc(N5CCN(C)CC5)cc4)nc32)CC1` [Example 1, 8-(2-(4-acryloylpiperazin-1-yl)ethyl)-2-((4-(4-methylpiperazin-1-yl)phenyl)amino)pyrido[2,3-d]pyrimidin-7(8H)-one], the “Tall-1 (pIC50)” value in series [1] is “B (B represents a pC50 value between 6.7 (included) and 7.5 (IC50 between 200 nM and 32 nM))”. Moreover, the “JAK 2 (pKi)” value at JAK2 was “E (E represents a pKi value of 7 or below (Ki of 100 nM or above))”. Moreover, the Kp in series [2] was over 1000.

With `C=CC(=O)N1CC(CCn2c(=O)ccc3cnc(Nc4ccc(N5CCN(C(C)=O)CC5)cc4)nc32)C1` [Example 2, 2-((4-(4-acetylpiperazin-1-yl)phenyl)amino)-8-(2-(1-acryloylazetidin-3-yl)ethyl)pyrido[2,3-d]pyrimidin-7(8H)-one], the “Tall-1 (pIC50)” value in series [1] was “B (B represents a pC50 value between 6.7 (included) and 7.5 (IC50 between 200 nM and 32 nM))”. The “JAK 2 (pKi)” value on JAK2 is “E (E represents a pKi value of 7 or below (Ki of 100 nM or above))”. In series [2], the Kp was over 100.

Consider `C=CC(=O)N1CCN(CCn2c(=O)ccc3cnc(Nc4ccc(N5CCN(C(=O)CCSC)CC5)cc4)nc32)CC1` [Example 4, 8-(2-(4-acryloylpiperazin-1-yl)ethyl)-2-((4-(4-(3-(methylthio)propanoyl)piperazin-1-yl)phenyl)amino)pyrido[2,3-d]pyrimidin-7(8H)-one], for which the “Tall-1 (pIC50)” value in series [1] was “B (B represents a pC50 value between 6.7 (included) and 7.5 (IC50 between 200 nM and 32 nM))”. The “JAK 2 (pKi)” value at JAK2 is on record as “E (E represents a pKi value of 7 or below (Ki of 100 nM or above))”. Further, in series [2], the Kp was over 1000.

For the compound `C=CC(=O)N1CC(CCn2c(=O)ccc3cnc(Nc4cccc(CN5CCN(C(=O)N(C)C)CC5)c4)nc32)C1` [Example 5, 4-(3-((8-(2-(1-acryloylazetidin-3-yl)ethyl)-7-oxo-7,8-dihydropyrido[2,3-d]pyrimidin-2-yl)amino)benzyl)-N,N-dimethylpiperazine-1-carboxamide], the “Tall-1 (pIC50)” value in series [1] is “B (B represents a pC50 value between 6.7 (included) and 7.5 (IC50 between 200 nM and 32 nM))”. Further, the “JAK 2 (pKi)” value at JAK2 is recorded as “E (E represents a pKi value of 7 or below (Ki of 100 nM or above))”. In addition, in series [2], the Kp is over 100.

Regarding `C=CC(=O)N1CC(CCn2c(=O)ccc3cnc(Nc4cccc(N5CCN(C(=O)CCSC)CC5)c4)nc32)C1` [Example 7, 8-(2-(1-acryloylazetidin-3-yl)ethyl)-2-((3-(4-(3-(methylthio)propanoyl)piperazin-1-yl)phenyl)amino)pyrido[2,3-d]pyrimidin-7(8H)-one], the “Tall-1 (pIC50)” value in series [1] is “B (B represents a pC50 value between 6.7 (included) and 7.5 (IC50 between 200 nM and 32 nM))”. At JAK2, the “JAK 2 (pKi)” value was “E (E represents a pKi value of 7 or below (Ki of 100 nM or above))”. Moreover, in series [2], the Kp was over 100.

Take `C=CC(=O)N1CCN(CCn2c(=O)ccc3cnc(Nc4cnn(C)c4)nc32)[C@@H](CC)C1` [Example 12, (S)-8-(2-(4-acryloyl-2-ethylpiperazin-1-yl)ethyl)-2-((1-methyl-1H-pyrazol-4-yl)amino)pyrido[2,3-d]pyrimidin-7(8H)-one]: the “Tall-1 (pIC50)” value in series [1] was “B (B represents a pC50 value between 6.7 (included) and 7.5 (IC50 between 200 nM and 32 nM))”. Further, at JAK2, the “JAK 2 (pKi)” value is “E (E represents a pKi value of 7 or below (Ki of 100 nM or above))”. The Kp in series [2] was over 50.

Turning to `C=CC(=O)N1CC(CCn2c(=O)ccc3cnc(Nc4ccc(N5CCN(C(=O)CSC)CC5)cc4)nc32)C1` [Example 13, 8-(2-(1-acryloylazetidin-3-yl)ethyl)-2-((4-(4-(2-(methylthio)acetyl)piperazin-1-yl)phenyl)amino)pyrido[2,3-d]pyrimidin-7(8H)-one], in series [1], the “Tall-1 (pIC50)” value is “B (B represents a pC50 value between 6.7 (included) and 7.5 (IC50 between 200 nM and 32 nM))”. The “JAK 2 (pKi)” value on JAK2 is reported as “E (E represents a pKi value of 7 or below (Ki of 100 nM or above))”. Besides, in series [2], the Kp was over 1000.

The Kp is the ratio of the level in a tissue or fluid to that in plasma or blood.

These data come from patent publication US11697648B2, “Fused pyrimidine pyridinone compounds as JAK inhibitors” (THERAVANCE BIOPHARMA R&D IP, LLC, priority 2019, dated 2023).
